We go through four compounds from patent US10344060B2 (priority 2013, dated 2019).

For the experiment, the target named is hNav1.7 (Homo sapiens, UniProt Q15858). As to the kind of experiment: cell-based. As to conditions: for Nav1.4/Nav1.7 / Nav1.5/Nav1.7: ratio of PX tonic IC50 values, Table 11. The experiment is classed as cell-based.
Sequence of hNav1.7 (Q15858 whole entry): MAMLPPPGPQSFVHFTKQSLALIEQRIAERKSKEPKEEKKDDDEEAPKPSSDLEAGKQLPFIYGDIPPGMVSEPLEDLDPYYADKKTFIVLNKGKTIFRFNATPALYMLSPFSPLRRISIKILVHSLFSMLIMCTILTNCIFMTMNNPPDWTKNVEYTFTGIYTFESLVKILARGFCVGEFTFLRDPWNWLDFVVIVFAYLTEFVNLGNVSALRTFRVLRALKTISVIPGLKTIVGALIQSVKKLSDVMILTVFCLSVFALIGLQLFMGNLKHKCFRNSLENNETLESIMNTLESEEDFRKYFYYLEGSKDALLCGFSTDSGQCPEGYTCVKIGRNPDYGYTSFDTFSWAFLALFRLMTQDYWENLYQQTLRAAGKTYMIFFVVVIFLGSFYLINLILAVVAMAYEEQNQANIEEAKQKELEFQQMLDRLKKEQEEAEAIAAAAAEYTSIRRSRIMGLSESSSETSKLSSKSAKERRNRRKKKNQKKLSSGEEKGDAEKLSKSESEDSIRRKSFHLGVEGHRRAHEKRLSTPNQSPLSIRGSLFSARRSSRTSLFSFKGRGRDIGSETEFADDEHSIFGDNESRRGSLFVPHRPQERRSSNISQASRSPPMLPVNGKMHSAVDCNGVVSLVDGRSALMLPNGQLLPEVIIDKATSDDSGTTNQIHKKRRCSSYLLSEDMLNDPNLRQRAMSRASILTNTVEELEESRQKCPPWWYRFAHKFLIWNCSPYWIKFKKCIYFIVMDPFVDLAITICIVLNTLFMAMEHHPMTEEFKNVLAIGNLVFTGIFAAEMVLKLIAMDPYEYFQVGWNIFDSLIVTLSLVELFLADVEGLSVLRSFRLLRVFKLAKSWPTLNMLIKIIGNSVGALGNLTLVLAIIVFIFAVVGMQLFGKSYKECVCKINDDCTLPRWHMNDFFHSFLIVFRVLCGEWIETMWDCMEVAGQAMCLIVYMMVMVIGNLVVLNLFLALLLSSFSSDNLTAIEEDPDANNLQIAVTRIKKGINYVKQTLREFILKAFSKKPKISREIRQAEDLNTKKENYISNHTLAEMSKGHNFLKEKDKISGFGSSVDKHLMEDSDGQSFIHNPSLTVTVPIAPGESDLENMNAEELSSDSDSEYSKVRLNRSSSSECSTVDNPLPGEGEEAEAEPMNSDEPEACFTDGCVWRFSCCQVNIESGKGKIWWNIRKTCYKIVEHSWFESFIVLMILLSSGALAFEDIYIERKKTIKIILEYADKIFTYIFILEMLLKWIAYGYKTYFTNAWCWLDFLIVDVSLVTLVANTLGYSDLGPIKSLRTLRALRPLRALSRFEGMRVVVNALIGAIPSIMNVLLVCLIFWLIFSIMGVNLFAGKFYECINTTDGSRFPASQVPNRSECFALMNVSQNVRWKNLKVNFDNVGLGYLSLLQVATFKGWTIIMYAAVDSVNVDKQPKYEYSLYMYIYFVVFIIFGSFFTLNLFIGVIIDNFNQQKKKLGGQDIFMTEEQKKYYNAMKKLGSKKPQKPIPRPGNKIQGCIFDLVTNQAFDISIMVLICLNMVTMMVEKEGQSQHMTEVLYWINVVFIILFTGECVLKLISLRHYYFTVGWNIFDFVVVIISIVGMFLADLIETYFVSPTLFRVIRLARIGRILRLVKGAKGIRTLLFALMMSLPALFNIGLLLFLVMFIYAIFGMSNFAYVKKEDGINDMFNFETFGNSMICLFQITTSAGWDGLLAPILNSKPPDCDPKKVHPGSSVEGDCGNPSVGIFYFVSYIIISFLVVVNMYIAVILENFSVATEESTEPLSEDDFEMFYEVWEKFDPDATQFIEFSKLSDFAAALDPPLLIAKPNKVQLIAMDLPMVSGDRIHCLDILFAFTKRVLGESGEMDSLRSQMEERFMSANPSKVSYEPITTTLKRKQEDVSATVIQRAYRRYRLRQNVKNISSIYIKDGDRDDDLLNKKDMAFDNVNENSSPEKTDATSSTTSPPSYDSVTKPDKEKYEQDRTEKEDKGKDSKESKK

Turning to `C#CC[C@H](N)C(=O)N[C@@H](Cc1ccc(O)cc1)C(=O)N[C@H]1CSSC[C@@H]2NC(=O)[C@@H]3CSSC[C@@H](C(=O)N[C@@H](CCCNC(=N)N)C(=O)N[C@@H](CCCCN)C(=O)N[C@@H](CCC(=O)O)C(=O)N[C@H](C(N)=O)[C@@H](C)CC)NC(=O)[C@H](Cc4c[nH]c5ccccc45)NC(=O)[C@H](CC(C)C)NC(=O)[C@H](CCCCN)NC(=O)[C@H](CSSC[C@H](NC(=O)[C@H]([C@@H](C)O)NC(=O)[C@H](Cc4c[nH]c5ccccc45)NC(=O)[C@H](CCCC)NC(=O)[C@H](Cc4cccc5ccccc45)NC(=O)[C@H](CCCCN)NC(=O)[C@H](CCC(N)=O)NC1=O)C(=O)N[C@@H](CC(=O)O)C(=O)N[C@@H](CO)C(=O)N[C@@H](CCCCN)C(=O)N[C@@H](CCCNC(=N)N)C(=O)N[C@@H](C)C(=O)N3)NC(=O)[C@H](CCCNC(=N)N)NC(=O)[C@H](CC(C)C)NC(=O)CNC(=O)[C@H](CCC(=O)O)NC2=O` [compound 841], for the setting “Table 12, PatchXpress, tonic block, read-out: PX hNav1.7 Tonic IC50”, the IC50 was found to be 70.9 nM.
Take `CCCC[C@@H]1NC(=O)[C@H](CO)NC(=O)[C@H](CC(=O)O)NC(=O)[C@@H]2CSSC[C@@H]3NC(=O)[C@H](CCCNC(=N)N)NC(=O)[C@H](CC(C)C)NC(=O)CNC(=O)[C@H](CCCCNC(=O)CCOCCOCCOCCOCCOCCOCCOCCOCCOCCOCCOCCOCCN)NC(=O)[C@H](CSSC[C@H](NC(=O)[C@H](Cc4ccc(O)cc4)NC(=O)[C@@H](N)CC#N)C(=O)N[C@@H](CCC(N)=O)C(=O)N[C@@H](CCCCN)C(=O)N[C@@H](Cc4c[nH]c5ccccc45)C(=O)N[C@@H](CCCC)C(=O)N[C@@H](Cc4c[nH]c5ccccc45)C(=O)N[C@@H]([C@@H](C)O)C(=O)N2)NC(=O)[C@H](CSSC[C@@H](C(=O)N[C@@H](CCCNC(=N)N)C(=O)N[C@@H](CCCCN)C(=O)N[C@@H](CCC(=O)O)C(=O)N[C@H](C(N)=O)[C@@H](C)CC)NC(=O)[C@H](Cc2c[nH]c4ccccc24)NC(=O)[C@H](CC(C)C)NC(=O)[C@H](CCCCN)NC3=O)NC(=O)[C@H](C)NC(=O)[C@H](CCCNC(=N)N)NC1=O` [compound 561]: the Nav1.4/Nav1.7 amounted to 33.
For the compound `CCCC[C@@H]1NC(=O)[C@H](Cc2c[nH]c3ccccc23)NC(=O)[C@H](CCCCN)NC(=O)[C@H](CCC(N)=O)NC(=O)[C@@H](NC(=O)[C@H](Cc2ccc(O)cc2)NC(=O)[C@H](CCC)NC(=O)[C@@H](N)CC(C)C)CSSC[C@@H]2NC(=O)[C@@H]3CSSC[C@@H](C(=O)N[C@@H](CCCNC(=N)N)C(=O)N[C@@H](CCCCN)C(=O)N[C@@H](CCC(=O)O)C(=O)N[C@H](C(N)=O)[C@@H](C)CC)NC(=O)[C@H](Cc4c[nH]c5ccccc45)NC(=O)[C@H](CC(C)C)NC(=O)[C@H](CCCCN)NC(=O)[C@H](CSSC[C@H](NC(=O)[C@H]([C@@H](C)O)NC(=O)[C@H](Cc4c[nH]c5ccccc45)NC1=O)C(=O)N[C@@H](CC(=O)O)C(=O)N[C@@H](CO)C(=O)N[C@@H](CCCCN)C(=O)N[C@@H](CCCNC(=N)N)C(=O)N[C@@H](C)C(=O)N3)NC(=O)[C@H](CCCNC(=N)N)NC(=O)[C@H](CC(C)C)NC(=O)CNC(=O)[C@H](CCCCNC(=O)CCOCCOCCOCCOCCOCCOCCOCCOCCOCCOCCOCCOCCN)NC2=O` [compound 471], the Nav1.4/Nav1.7 worked out at 6 and the Nav1.5/Nav1.7 is on record as 110.
As to `CC[C@H](C)[C@H](NC(=O)[C@H](Cc1ccc(O)cc1)NC(=O)[C@H](CCCCN)NC(=O)[C@H](CCCNC(=N)N)NC(=O)[C@@H]1CSSC[C@@H]2NC(=O)[C@H](C)NC(=O)[C@H](CCCNC(=N)N)NC(=O)[C@H](CCCCN)NC(=O)[C@H](CO)NC(=O)[C@H](CC(=O)O)NC(=O)[C@@H]3CSSC[C@H](NC(=O)[C@H](CCC(=O)O)NC(=O)[C@H](CC(C)C)NC(=O)CNC(=O)[C@H](CCC(=O)O)NC(=O)[C@H](CSSC[C@H](NC(=O)[C@@H](N)CCC(=O)O)C(=O)N[C@@H](CCC(N)=O)C(=O)N[C@@H](CCCCN)C(=O)N[C@@H](Cc4c[nH]c5ccccc45)C(=O)N[C@@H](CCSC)C(=O)N[C@@H](Cc4c[nH]c5ccccc45)C(=O)N[C@@H]([C@@H](C)O)C(=O)N3)NC2=O)C(=O)N[C@@H](CCCCN)C(=O)N[C@@H](CC(C)C)C(=O)N[C@@H](Cc2c[nH]c3ccccc23)C(=O)N1)C(N)=O` [compound 277], the Nav1.4/Nav1.7 is 171 and the Nav1.5/Nav1.7 was >1818.
